The source of these data is US20240148747A1, “SMALL MOLECULE ACTIVATORS OF YAP TRANSCRIPTIONAL ACTIVITY FOR REGENERATIVE ORGAN REPAIR” (THE SCRIPPS RESEARCH INSTITUTE, priority 2021, published 2024).

In one series the test system is YAP. Description: TEAD-LUC activation assay (293A-TEAD-LUC reporter). The format is cell-based. As to conditions: Homo sapiens, Table 3; read-out: TEAD-LUC activation assay EC50.
The nature of series [1]: Cytotoxicity in the TEAD-LUC activation assay. As to conditions: human.

Source text for YAP: More specifically, we used a 293A cell line harboring a stably integrated cassette containing 8 copies of the TEAD binding element upstream of luciferase (8xGTII-LUC). These cells retain responsiveness to contact inhibition-induced decreases in YAP transcriptional output.^6 The TEAD-responsive reporter assay (called 293A-TEAD-LUC throughout) was adapted to 1536-well format and then used to screen a library of ˜738k compounds for YAP-inducing activity.
Additional compounds of the present disclosure were subjected to the assay described above.

Broadly, the EC50 is the concentration needed to bring the measured effect to its halfway point. What is called IC50 is the concentration that inhibits the measured activity by half. Read a high IC50 as weaker potency. As to `O=C(NCCc1cccc(F)c1)c1cc(-c2ccccc2)on1` [Compound 55], in the series with YAP, the EC50 was over 20 µM. Besides, in series [1], the IC50 is over 20 µM.

Regarding `O=C(NC12CC(C(F)(F)F)(C1)C2)c1cc(-c2ccccc2)on1` [Compound 56], in the series on YAP, the EC50 was over 20 µM. In series [1], the IC50 was over 20 µM.

On to `O=C(NC12CC(F)(C1)C2)c1cc(-c2ccccc2)on1` [Compound 57], for which the EC50 in the series on YAP is over 20 µM. Moreover, the IC50 in series [1] is over 20 µM.

Regarding `CN(C)CCN(C)C(=O)c1cc(-c2ccccc2)on1` [Compound 58], in the series with YAP, the EC50 is over 20 µM. Also, the IC50 in series [1] was over 20 µM.

With `CC(C)(C)OC(=O)NCCNC(=O)c1cc(-c2ccccc2)on1` [Compound 59], the EC50 with YAP amounted to 3.58 µM. This compound yielded an IC50 in series [1] of over 20 µM.

For `CN(CC(F)F)C(=O)c1cc(-c2ccccc2)on1` [Compound 60], in the series with YAP, the concentration giving a half-maximal response (EC50) was over 20 µM. Half-maximal inhibition in series [1] (IC50) required 12 µM.

For `CSCCNC(=O)c1cc(-c2ccccc2)on1` [Compound 61], the EC50 with YAP turned out to be 2.36 µM. In addition, the IC50 in series [1] was over 20 µM.

As for `C[C@@H](NC(=O)c1cc(-c2ccccc2)on1)c1ccccc1` [Compound 62], the concentration for a half-maximal effect (EC50) in the series with YAP was over 20 µM. In addition, the IC50 in series [1] is over 20 µM.

As for `O=C(NCC(F)(F)F)c1cc(-c2ccccc2)on1` [Compound 63], the EC50 in the series on YAP was 7.58 µM. In series [1], this compound registered an IC50 of over 20 µM.

Regarding `CC(CNC(=O)c1cc(-c2ccccc2)on1)c1ccc(Cl)cc1` (stereo not drawn) [Compound 64], the EC50 in the series on YAP was over 20 µM. The IC50 in series [1] was over 20 µM.

Regarding `O=C(NCCc1ccc(Cl)c(Cl)c1)c1cc(-c2ccccc2)on1` [Compound 65], the EC50 with YAP is over 20 µM. The compound further gave a half-maximal inhibitory concentration (IC50) in series [1] of over 20 µM.

As to `CN(CCO)C(=O)c1cc(-c2ccccc2)on1` [Compound 66], the EC50 in the series on YAP is over 20 µM. In series [1], this compound displayed a half-inhibitory concentration (IC50) of over 20 µM.

Take `C[C@H](NC(=O)c1cc(-c2ccccc2)on1)c1ccc(Cl)cc1` [Compound 67]: the EC50 in the series on YAP was over 20 µM. The compound further displayed a concentration for half-maximal inhibition (IC50) in series [1] of over 20 µM.

`O=C(NCCc1ccc(F)c(Cl)c1)c1cc(-c2ccccc2)on1` [Compound 68]: the EC50 with YAP was over 20 µM. For the same compound, the IC50 in series [1] was over 20 µM.

As for `O=C(NCCc1cccc(C(F)(F)F)c1)c1cc(-c2ccccc2)on1` [Compound 69], the EC50 with YAP is over 20 µM. For the same compound, in series [1], the half-inhibitory concentration (IC50) was over 20 µM.

As to `O=C(NCCCn1ccnn1)c1cc(-c2ccc(F)cc2)on1` [Compound 70], the EC50 in the series with YAP is 5 µM. In addition, the IC50 in series [1] was over 20 µM.

Turning to `O=C(NCCCn1ccnn1)c1cc(-c2ccccc2F)on1` [Compound 71], the EC50 in the series with YAP turned out to be 5 µM. In series [1], this compound yielded an IC50 of over 20 µM.

Regarding `Cc1ccc(-c2cc(C(=O)NCCCn3ccnn3)no2)cc1` [Compound 72], the EC50 in the series with YAP is over 20 µM. Moreover, the IC50 in series [1] is over 20 µM.

As for `COc1ccc(-c2cc(C(=O)NCCCn3ccnn3)no2)cc1` [Compound 73], in the series with YAP, the EC50 was over 20 µM. Further, the IC50 in series [1] was over 20 µM.

On to `O=C(NCCCn1ccnn1)c1cc(-c2cccc(F)c2)on1` [Compound 74], for which the EC50 in the series on YAP is 15 µM. The IC50 in series [1] was over 20 µM.

Regarding `O=C(NCCCn1ccnn1)c1cc(-c2ccc(F)cc2F)on1` [Compound 75], the concentration for a half-maximal effect (EC50) in the series on YAP is 10 µM. In series [1], this compound yielded an IC50 of over 20 µM.

For `O=C(NCCCn1ccnn1)c1cc(-c2ccc(C(F)(F)F)cc2)on1` [Compound 76], the EC50 in the series on YAP was over 20 µM. Also, the IC50 in series [1] was over 20 µM.

On to `O=C(NCCCn1ccnn1)c1cc(-c2ccc(OC(F)(F)F)cc2)on1` [Compound 77], for which, in the series with YAP, the EC50 is over 20 µM. Further, in series [1], the IC50 is over 20 µM.

Take `O=C(NCCCn1ccnn1)c1cc(-c2cccnc2)on1` [Compound 78]: in the series on YAP, the EC50 is over 20 µM. The 50% inhibitory concentration (IC50) in series [1] is over 20 µM.

With `O=C(NCCCn1ccnn1)c1cc(-c2ccc(F)c(F)c2)on1` [Compound 79], in the series with YAP, the EC50 is over 20 µM. Besides, the IC50 in series [1] is over 20 µM.

Consider `O=C(NCCCn1ccnn1)c1cc(-c2cc(F)cc(F)c2)on1` [Compound 80], for which the EC50 with YAP is over 20 µM. In series [1], this compound displayed a 50% inhibitory concentration (IC50) of over 20 µM.

Turning to `O=C(NCCCn1ccnn1)c1cc(-c2ccc(Cl)cc2)on1` [Compound 81], the EC50 in the series with YAP is over 20 µM. Moreover, in series [1], the 50% inhibitory concentration (IC50) was over 20 µM.

Turning to `O=C(NCCCn1ccnn1)c1cc(-c2cncnc2)on1` [Compound 82], in the series with YAP, the EC50 is over 20 µM. This compound returned an IC50 in series [1] of over 20 µM.

Consider `O=C(NCCNc1ccccc1)c1cc(-c2ccccc2)on1` [Compound 83], for which the EC50 in the series on YAP was over 20 µM. This compound also returned an IC50 in series [1] of over 20 µM.

For the compound `O=C(NCCCc1nccs1)c1n[nH]c2ccccc12` [Compound 84], the EC50 in the series on YAP was over 20 µM. This compound also displayed an IC50 in series [1] of over 20 µM.

Regarding `O=C(NCCCNc1ccccc1F)c1cc(-c2ccccc2)on1` [Compound 85], the EC50 in the series with YAP was over 20 µM. In series [1], this compound returned an IC50 of over 20 µM.

`O=C(NCCCc1nccs1)c1cc(-c2c(F)cc(F)cc2F)on1` [Compound 86]: the EC50 with YAP is over 20 µM. The compound also yielded an IC50 in series [1] of over 20 µM.

In the case of `O=C(NCCCc1nccs1)c1ncoc1-c1ccccc1` [Compound 87], the EC50 in the series on YAP was over 20 µM. In addition, the IC50 in series [1] was over 20 µM.

Consider `O=C(NCCCc1nccs1)c1nc2ccccc2o1` [Compound 88], for which the EC50 in the series with YAP was over 20 µM. The compound also registered a concentration for half-maximal inhibition (IC50) in series [1] of over 20 µM.

Turning to `O=C(NCCCc1nccs1)c1cc(-c2ccc(F)cc2F)on1` [Compound 89], the 50% effective concentration (EC50) in the series on YAP came out at 10 µM. The compound also registered an IC50 in series [1] of over 20 µM.

Take `O=C(NCCc1nccs1)c1cc(-c2ccccc2)on1` [Compound 90]: the EC50 with YAP turned out to be 2.5 µM. This compound also registered an IC50 in series [1] of over 20 µM.

As for `O=C(NCCCc1nccs1)c1cc(C(F)(F)F)ccn1` [Compound 91], the EC50 with YAP was 15 µM. The same compound showed an IC50 in series [1] of over 20 µM.

Regarding `O=C(NCCCc1nccs1)c1cncc(C(F)(F)F)c1` [Compound 92], the EC50 in the series on YAP is over 20 µM. This compound also came in with an IC50 in series [1] of over 20 µM.

On to `O=C(NCCn1cccc1)c1n[nH]c2ccccc12` [Compound 93], for which the EC50 with YAP was over 20 µM. In series [1], this compound had an IC50 of over 20 µM.

Turning to `O=C(NCCCc1nccs1)c1cc(-c2c(F)cccc2F)on1` [Compound 94], the EC50 with YAP is 1 µM. Moreover, the IC50 in series [1] is over 20 µM.

Take `O=C(NCCCNc1cccc(F)c1)c1cc(-c2ccccc2)on1` [Compound 95]: the EC50 with YAP is 2.5 µM. This compound yielded an IC50 in series [1] of over 20 µM.

Take `Cc1cncc(C(=O)NCCCc2nccs2)c1` [Compound 96]: the EC50 in the series with YAP was over 20 µM. In series [1], the half-inhibitory concentration (IC50) was over 20 µM.

Turning to `O=C(NCCCn1ccnn1)c1n[nH]c2ccccc12` [Compound 97], the half-maximal effective concentration (EC50) in the series with YAP is over 20 µM. The IC50 in series [1] is over 20 µM.

As to `O=C(NCCc1nccs1)c1cc(-c2c(F)cccc2F)on1` [Compound 98], the EC50 in the series on YAP is over 20 µM. This compound registered a concentration for half-maximal inhibition (IC50) in series [1] of over 20 µM.

On to `O=C(NCCCN1CCOCC1)c1cc(-c2ccccc2F)on1` [Compound 100], for which the half-maximal effective concentration (EC50) in the series on YAP came to 10 µM. The same compound registered an IC50 in series [1] of over 20 µM.

For the compound `O=C(NCCCn1cccc1)c1n[nH]c2ccccc12` [Compound 101], the EC50 in the series with YAP was over 20 µM. Also, in series [1], the IC50 is over 20 µM.

As for `O=C(NCCCc1nccs1)c1ncc(-c2ccccc2)o1` [Compound 102], in the series with YAP, the EC50 was over 20 µM. Besides, the IC50 in series [1] was over 20 µM.

In the case of `O=C(NCCCc1nccs1)c1noc(-c2ccccc2)n1` [Compound 103], the EC50 in the series on YAP was over 20 µM. Also, in series [1], the IC50 is over 20 µM.
